System: 171881-019-R-J1-PDC tumor spheroids, viability
Experiment: Anticancer human tumor 171881-019-R-J1-PDC patient-derived invasive breast carcinoma cell line growth inhibition [GQUAD]
Settings: spheroids with HUVEC and MSC; for IC50: curve of first compound; for viability, T/C: stronger effect = lower value
Outline: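 Multi-cell-type spheroids of tumor cells with HUVEC and mesenchymal stem cells, treated with drug combinations. Concentrations descend in half-log steps from near clinical Cmax, or from 10 microM where Cmax is unknown; viability read-out.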

[1] = second compound 0.0316 µM, first compound 0.0316 µM
[2] = second compound 0.0316 µM, first compound 0.1 µM
[3] = second compound 0.0316 µM, first compound 0.316 µM
[4] = second compound 0.0316 µM, first compound 1 µM
[5] = second compound 0.0316 µM, first compound 3.16 µM
[6] = second compound 0.0316 µM, first compound 10 µM
[7] = second compound 0.1 µM, first compound 0.0316 µM
[8] = second compound 0.1 µM, first compound 0.1 µM
[9] = second compound 0.1 µM, first compound 0.316 µM
[10] = second compound 0.1 µM, first compound 1 µM
[11] = second compound 0.1 µM, first compound 3.16 µM
[12] = second compound 0.1 µM, first compound 10 µM
[13] = second compound 0.316 µM, first compound 0.0316 µM
[14] = second compound 0.316 µM, first compound 0.1 µM
[15] = second compound 0.316 µM, first compound 0.316 µM
[16] = second compound 0.316 µM, first compound 1 µM
[17] = second compound 0.316 µM, first compound 3.16 µM
[18] = second compound 0.316 µM, first compound 10 µM
[19] = second compound 1 µM, first compound 0.0316 µM
[20] = second compound 1 µM, first compound 0.1 µM
[21] = second compound 1 µM, first compound 0.316 µM
[22] = second compound 1 µM, first compound 1 µM
[23] = second compound 1 µM, first compound 3.16 µM
[24] = second compound 1 µM, first compound 10 µM
[25] = second compound 3.16 µM, first compound 0.0316 µM
[26] = second compound 3.16 µM, first compound 0.1 µM
[27] = second compound 3.16 µM, first compound 0.316 µM
[28] = second compound 3.16 µM, first compound 1 µM
[29] = second compound 3.16 µM, first compound 3.16 µM
[30] = second compound 3.16 µM, first compound 10 µM
[31] = second compound 10 µM, first compound 0.0316 µM
[32] = second compound 10 µM, first compound 0.1 µM
[33] = second compound 10 µM, first compound 0.316 µM
[34] = second compound 10 µM, first compound 1 µM
[35] = second compound 10 µM, first compound 3.16 µM
[36] = second compound 10 µM, first compound 10 µM
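Note: spheroids exposed to compounds for 7 days.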
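Throughout, for viability, T/C: 100% = DMSO vehicle control viability.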

CC(C)(O)C1CCC(Nc2ccc3ncc(-c4cccc(C(F)(F)F)c4)n3n2)CC1 (stereo not drawn) + Cc1cnc(CNC(=O)c2c(=O)c3ccc(N4CCCN(C)CC4)nc3n3c2sc2ccccc23)cn1
IC50 (second compound 0.0316 µM): 1620 nM
IC50 (second compound 0.1 µM): 1710 nM
IC50 (second compound 0.316 µM): 1470 nM
IC50 (second compound 1 µM): 1190 nM
IC50 (second compound 3.16 µM): 1070 nM
IC50 (second compound 10 µM): 927 nM
viability, T/C [1]: 95.8%
viability, T/C [2]: 87.5%
viability, T/C [3]: 89.5%
viability, T/C [4]: 69.7%
viability, T/C [5]: 18.2%
viability, T/C [6]: 26.9%
viability, T/C [7]: 88.7%
viability, T/C [8]: 83.8%
viability, T/C [9]: 70.9%
viability, T/C [10]: 73.4%
viability, T/C [11]: 19%
viability, T/C [12]: 27.2%
viability, T/C [13]: 76.5%
viability, T/C [14]: 76.7%
viability, T/C [15]: 72%
viability, T/C [16]: 63.1%
viability, T/C [17]: 21.9%
viability, T/C [18]: 25.7%
viability, T/C [19]: 71.9%
viability, T/C [20]: 65.2%
viability, T/C [21]: 72.9%
viability, T/C [22]: 56.3%
viability, T/C [23]: 13.6%
viability, T/C [24]: 18%
viability, T/C [25]: 65.4%
viability, T/C [26]: 60%
viability, T/C [27]: 63.1%
viability, T/C [28]: 53.1%
viability, T/C [29]: 0.32%
viability, T/C [30]: 0.82%
viability, T/C [31]: 59.3%
viability, T/C [32]: 62.5%
viability, T/C [33]: 58.1%
viability, T/C [34]: 49.3%
viability, T/C [35]: 0.4%
viability, T/C [36]: 0.62%

COc1cc(C2c3cc4c(cc3C(OC3OC5COC(C)OC5C(O)C3O)C3COC(=O)C23)OCO4)cc(OC)c1O (stereo not drawn) + Cc1cnc(CNC(=O)c2c(=O)c3ccc(N4CCCN(C)CC4)nc3n3c2sc2ccccc23)cn1
IC50 (second compound 0.0316 µM): 706 nM
IC50 (second compound 0.1 µM): 907 nM
IC50 (second compound 0.316 µM): 1060 nM
IC50 (second compound 1 µM): 1270 nM
IC50 (second compound 3.16 µM): 1360 nM
IC50 (second compound 10 µM): 1400 nM
viability, T/C [1]: 94.5%
viability, T/C [2]: 79.3%
viability, T/C [3]: 63.4%
viability, T/C [4]: 42.5%
viability, T/C [5]: 31.4%
viability, T/C [6]: 17.4%
viability, T/C [7]: 83.7%
viability, T/C [8]: 75.2%
viability, T/C [9]: 60.5%
viability, T/C [10]: 52.3%
viability, T/C [11]: 30.6%
viability, T/C [12]: 16.7%
viability, T/C [13]: 69.9%
viability, T/C [14]: 74.2%
viability, T/C [15]: 59.9%
viability, T/C [16]: 49.5%
viability, T/C [17]: 36.7%
viability, T/C [18]: 18.1%
viability, T/C [19]: 65.4%
viability, T/C [20]: 61%
viability, T/C [21]: 59.1%
viability, T/C [22]: 53.3%
viability, T/C [23]: 39.9%
viability, T/C [24]: 19.3%
viability, T/C [25]: 60.3%
viability, T/C [26]: 60.2%
viability, T/C [27]: 60%
viability, T/C [28]: 53.3%
viability, T/C [29]: 39.7%
viability, T/C [30]: 20.9%
viability, T/C [31]: 58%
viability, T/C [32]: 57.7%
viability, T/C [33]: 52.9%
viability, T/C [34]: 55%
viability, T/C [35]: 39%
viability, T/C [36]: 21.1%

COc1ncnc(C2CC2)c1-c1ncc2cnn(Cc3ccc(-c4nc(C(F)(F)F)cn4C(C)C)cc3)c2n1 + Cc1[nH]c2ccc(F)cc2c1-c1nc2c3cccnc3c3ncccc3c2[nH]1
IC50 (second compound 0.0316 µM): > 10000 nM
IC50 (second compound 0.1 µM): > 10000 nM
IC50 (second compound 0.316 µM): > 10000 nM
IC50 (second compound 1 µM): > 10000 nM
IC50 (second compound 3.16 µM): < 31.6 nM
IC50 (second compound 10 µM): < 31.6 nM
viability, T/C [1]: 88.4%
viability, T/C [2]: 93.6%
viability, T/C [3]: 97.8%
viability, T/C [4]: 104%
viability, T/C [5]: 90.5%
viability, T/C [6]: 88.4%
viability, T/C [7]: 97.5%
viability, T/C [8]: 87.9%
viability, T/C [9]: 99.1%
viability, T/C [10]: 98.8%
viability, T/C [11]: 83.1%
viability, T/C [12]: 81.8%
viability, T/C [13]: 71.4%
viability, T/C [14]: 74.2%
viability, T/C [15]: 75.4%
viability, T/C [16]: 72%
viability, T/C [17]: 72.3%
viability, T/C [18]: 62.7%
viability, T/C [19]: 65.1%
viability, T/C [20]: 54.2%
viability, T/C [21]: 59.4%
viability, T/C [22]: 60.3%
viability, T/C [23]: 71.1%
viability, T/C [24]: 60.3%
viability, T/C [25]: 8.81%
viability, T/C [26]: 4.91%
viability, T/C [27]: 7.33%
viability, T/C [28]: 8.01%
viability, T/C [29]: 11.8%
viability, T/C [30]: 6.52%
viability, T/C [31]: 40.8%
viability, T/C [32]: 38.5%
viability, T/C [33]: 30.7%
viability, T/C [34]: 50%
viability, T/C [35]: 42.6%
viability, T/C [36]: 35.2%

CCCS(=O)(=O)Nc1ccc(F)c(C(=O)c2c[nH]c3ncc(-c4ccc(Cl)cc4)cc23)c1F + Cc1cnc(CNC(=O)c2c(=O)c3ccc(N4CCCN(C)CC4)nc3n3c2sc2ccccc23)cn1
IC50 (second compound 0.0316 µM): > 10000 nM
IC50 (second compound 0.1 µM): > 10000 nM
IC50 (second compound 0.316 µM): > 10000 nM
IC50 (second compound 1 µM): > 10000 nM
IC50 (second compound 3.16 µM): > 10000 nM
IC50 (second compound 10 µM): > 10000 nM
viability, T/C [1]: 104%
viability, T/C [2]: 95.3%
viability, T/C [3]: 108%
viability, T/C [4]: 112%
viability, T/C [5]: 117%
viability, T/C [6]: 69.3%
viability, T/C [7]: 83%
viability, T/C [8]: 95.2%
viability, T/C [9]: 90.4%
viability, T/C [10]: 102%
viability, T/C [11]: 92.2%
viability, T/C [12]: 54.9%
viability, T/C [13]: 78%
viability, T/C [14]: 78.8%
viability, T/C [15]: 81.9%
viability, T/C [16]: 78.7%
viability, T/C [17]: 91.9%
viability, T/C [18]: 52.1%
viability, T/C [19]: 72.1%
viability, T/C [20]: 66.5%
viability, T/C [21]: 79.5%
viability, T/C [22]: 69.5%
viability, T/C [23]: 82.3%
viability, T/C [24]: 59.6%
viability, T/C [25]: 63.9%
viability, T/C [26]: 61.8%
viability, T/C [27]: 68.5%
viability, T/C [28]: 66.6%
viability, T/C [29]: 67.5%
viability, T/C [30]: 53%
viability, T/C [31]: 59.9%
viability, T/C [32]: 62.1%
viability, T/C [33]: 59.4%
viability, T/C [34]: 68%
viability, T/C [35]: 68.4%
viability, T/C [36]: 51.8%

Source: PubChem BioAssay AID2060498 (Molecular Pharmacology Branch, DTP, NCI, 2025)
